Source: PMC5263201, “GABAA receptor occupancy by subtype selective GABAAα2,3 modulators: PET studies in humans” (Psychopharmacology, 2016)
“And” between values parts separate entries of the source, which are not always exact repeats. Equal values may be shown once. Read-outs that look alike come from different tables or passages of the source.

Legend:
[1] = tested on: GABAA receptors (benzodiazepine binding site); experiment: PET with [11C]flumazenil (HRRT): GABAA receptor occupancy; assay type: in vivo, human; details: for Occupancy (%) OC: occipital cortex; for Occupancy (%) OC / Occupancy (%) AMG / Occupancy (%) CER / Occupancy (%) PUT: 1 h after drug administration; for Occupancy (%) AMG: amygdala; for Occupancy (%) CER: cerebellum; for Occupancy (%) PUT: putamen
Protocol: Two separate open-label phase I PET studies were conducted in 2008–2009.
The initial study design included two sequential panels, with two subjects in each. The first panel was intended to obtain initial receptor occupancy values, to be used for dose selection in the second panel. […] The studies followed an adaptive design, i.e., doses and PET measurements were adjusted depending on the results of preceding measurements. […] To optimize quantification of the relationship between AZ6280 exposure and receptor occupancy, the number of subjects with the highest 40 mg dose was increased (Fig. 1).
The head of the subject was fixed using individual plaster helmet. A sterile physiological phosphate buffer (pH 7.4) solution containing [^11C]flumazenil was injected intravenously as a bolus during 2 s, immediately followed by flush with 10 ml saline. The injected radioactivity for [^11C]flumazenil was in the range of 330–350 MBq, (340 (9) MBq, mean, SD) in the study 1 and in the range of 317–363 MBq (335 (16) MBq) in the study 2. The specific radioactivity of the radioligand at time of injection ranged from 310 to 1465 GBq/μmol (730 (414) GBq/μmol, mean, SD) and from 464 to 1879 GBq/μmol (977 (424) GBq/μmol, mean, SD), for study 1 and study 2, respectively.
PET examinations were performed over 63 min (HRRT; Siemens/CTI). List mode data were reconstructed using the ordinary Poisson 3D ordered subset estimation maximization algorithm, with 10 iterations and 16 subsets including modeling of the point spread function (Varrone et al. [2009]) into a 4D PET image containing 33 consecutive time frames (9 × 10 s, 2 × 15 s, 3 × 20 s, 4 × 30 s, 4 × 60 s, 4 × 180 s, 7 × 360 s) with a 3D array of 256 × 256 × 207 voxels having a size of 1.22 × 1.22 × 1.22 mm.
The anatomical brain regions were delineated manually on the MR images using in-house image analysis software. The regions included cortical and striatal subregions, thalamus, cerebellum, limbic regions, pons, and whole brain. The following four regions were selected in the final analysis: The occipital cortex and cerebellum were chosen because of the highest GABAA receptor binding by [^11C]flumazenil and good imaging statistics and preferential distribution of α1/α2 receptor subtypes; the amygdala was chosen because of its role in the brain circuits involved in anxiety and putamen for preferential α1/α2/α3 versus α5 receptor subtypes (Lingford-Hughes et al. [2002]; Fatemi et al. [2013]; Waldvogel and Faull [2015]). For the pons, the ROI was drawn on horizontal projection on the six central slices. […] The concentration of radioactivity in each ROI, calculated for each sequential time frame and corrected for ^11C decay, was plotted versus time (TACs).
An index of neuronal GABAA receptor density or binding potential (BPND) was calculated using the simplified reference tissue model (Lammertsma and Hume [1996]) and pons as a reference region. The calculated receptor occupancy (%) was then correlated to drug exposure according to the following equation:1 Occupancy=Occmax×Cav,PET/Ki,plasma+Cav,PET
where Occmax is the maximal occupancy induced by drug, C av,PET is the total drug plasma concentration, and K i,plasma is the inhibition constant corresponding to the drug plasma concentration required for half-maximum receptor occupancy. Non-linear least squares curve fitting of the relationship between drug plasma concentration and receptor occupancy was performed using Matlab R2007b (http://de.mathworks.com). Regional data were fitted simultaneously to obtain a single estimate of K i,plasma and regionally different estimates of Occmax. Best fit estimate and confidence interval (95% CI) were obtained on the logarithmic scale.

[2] = Plasma pharmacokinetics after single oral doses in the PET studies; assay type: in vivo, human; details: for C av,PET: average plasma concentration at time of PET
Protocol: Venous blood samples for determination of drug plasma concentrations were collected at approximately 15 min before [^11C]flumazenil injection and at 15 and 30 min and 3, 4, 6, 8, 10, 12, 16, 24, 36, and 48 h after drug administration, including three samples during PET measurement, at 1, 1.30, and 2 h after drug administration.
Calculations of the pharmacokinetic parameters included the maximum plasma concentration (C max), the time to the maximum plasma concentration (T max), and the average drug plasma concentration during the PET measurement (C av,PET) (division of the partial area corresponding to the start and end times of PET assessment, AUCPET, by the duration of the PET measurement). The pharmacokinetic calculations were performed using non-compartmental analysis using WinNonlin™, Pharsight Corporation.

[3] = Safety and tolerability in the PET studies; assay type: in vivo, human
Source text: Safety and tolerability assessments included records of adverse events, vital signs (blood pressure, heart rate), Allen’s test, ECG, clinical chemistry, hematology assessments, and urinalysis.

human MT1 receptor = human MT1 receptor (Homo sapiens, UniProt P48039); experiment: MT1 receptor GTPγS studies; assay type: biochemical
Sequence of human MT1 receptor (P48039 whole entry): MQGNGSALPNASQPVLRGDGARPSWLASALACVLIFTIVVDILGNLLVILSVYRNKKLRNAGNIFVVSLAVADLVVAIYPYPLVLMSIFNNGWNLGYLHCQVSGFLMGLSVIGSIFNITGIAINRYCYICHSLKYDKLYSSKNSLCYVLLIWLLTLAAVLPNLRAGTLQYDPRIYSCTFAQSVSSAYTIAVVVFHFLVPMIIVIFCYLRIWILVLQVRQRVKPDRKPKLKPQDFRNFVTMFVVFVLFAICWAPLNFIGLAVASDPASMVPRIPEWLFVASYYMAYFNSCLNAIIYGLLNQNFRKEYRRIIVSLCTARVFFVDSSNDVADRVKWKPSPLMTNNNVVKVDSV

[4] = tested on: approximately 160 different ligand binding assays; experiment: Battery of approximately 160 different ligand binding assays at 10 μM; details: active = ≥50% inhibition with an IC50 <1µM
[5] = Brain exposure in animals; assay type: in vivo
[6] = cited from earlier work
[7] = parameters: method as in Chen et al. 2014, 2015; details: neurophysiological test battery; ref Chen et al. 2014, 2015; cited from earlier work
[8] = AZD6280 5 to 40 mg single oral doses

Compound: CCCNC(=O)c1nnc2c(-c3cc(OC)ccc3OC)cccc2c1N [AZD6280]
- receptor occupancy at the maximum tolerated dose ([1]; 40 mg AZD6280, cortex and cerebellum): over 60%
- Occupancy (%) OC ([1]; AZD6280 single oral dose 5 mg): 11% and 7%
- Occupancy (%) AMG ([1]; AZD6280 single oral dose 12 mg): −8%
- Occupancy (%) CER ([1]; AZD6280 single oral dose 12 mg): 25%
- Occupancy (%) OC ([1]; AZD6280 single oral dose 12 mg): 17%
- Occupancy (%) PUT ([1]; AZD6280 single oral dose 12 mg): 0%
- Occupancy (%) AMG ([1]; AZD6280 single oral dose 20 mg): 20%
- Occupancy (%) CER ([1]; AZD6280 single oral dose 20 mg): 65%
- Occupancy (%) OC ([1]; AZD6280 single oral dose 20 mg): 60%
- Occupancy (%) PUT ([1]; AZD6280 single oral dose 20 mg): 32%
- Occupancy (%) AMG ([1]; AZD6280 single oral dose 30 mg): 9% and 5%
- Occupancy (%) CER ([1]; AZD6280 single oral dose 30 mg): 50% and 59%
- Occupancy (%) OC ([1]; AZD6280 single oral dose 30 mg): 39% and 43%
- Occupancy (%) PUT ([1]; AZD6280 single oral dose 30 mg): 16% and 14%
- Occupancy (%) CER ([1]; AZD6280 single oral dose 40 mg): 69% and 61% and 62% and 60%
- Occupancy (%) OC ([1]; AZD6280 single oral dose 40 mg): 50% and 52% and 62% and 53% and 36%
- Receptor occupancy (RO) ([1]; at 40mg, MTD, present study): 60-70%
- Ki ([1]; read-out: K i,plasma (plasma concentration required for 50% receptor occupancy), hyperbolic fit of occupancy vs C av,PET, regional data fitted simultaneously): 0.44 µM
- T max ([2]; AZD6280 single oral dose 5 mg, individual subjects): 108 min
- Cmax ([2]; AZD6280 single oral dose 5 mg, individual subjects, read-out: C max): 0.179 µM and 0.0772 µM
- C av,PET ([2]; AZD6280 single oral dose 12 mg): 0.20468 µM
- C av,PET ([2]; AZD6280 single oral dose 20 mg): 0.59222 µM
- C av,PET ([2]; AZD6280 single oral dose 30 mg): 0.51307 µM and 0.67682 µM
- T max ([2]; AZD6280 single oral dose 30 mg, individual subjects): 30 min
- Cmax ([2]; AZD6280 single oral dose 30 mg, individual subjects, read-out: C max): 0.731 µM
- T max ([2]; AZD6280 single oral dose 40 mg, individual subjects): 30 min and 36 min
- Cmax ([2]; AZD6280 single oral dose 40 mg, individual subjects, read-out: C max): 1.25 µM and 1.5 µM and 0.439 µM and 1.51 µM
- Cmax ([2]; human, plasma, oral, range over all doses and subjects, read-out: range for peak exposures, Cmax): 0.0283 to 0.555 µg/mL
- Tmax ([2]; human, plasma, po, 5 mg, AZD6280 single oral dose 5 mg, individual subjects): 60 min
- Tmax ([2]; human, plasma, po, 12 mg, AZD6280 single oral dose 12 mg, individual subject): 54 min
- Cmax ([2]; human, plasma, po, 12 mg, AZD6280 single oral dose 12 mg, individual subject, read-out: C max): 0.249 µM
- Tmax ([2]; human, plasma, po, 20 mg, AZD6280 single oral dose 20 mg, individual subject): 96 min
- Cmax ([2]; human, plasma, po, 20 mg, AZD6280 single oral dose 20 mg, individual subject, read-out: C max): 0.677 µM
- Cmax ([2]; human, plasma, po, 30 mg, AZD6280 single oral dose 30 mg, individual subjects, read-out: C max): 0.729 µM
- most common AEs: dizziness [3, 8]: four of eight subjects
- most common AEs: feeling drunk [3, 8]: two out of eight subjects
- receptor occupancy at the doses/exposure at which adverse events were reported ([3]; AZD7325 5, 20 and 30 mg, AZD6280 20 mg and above): > 60%
- high receptor occupancy reached without obvious sedative effects ([3]; PET studies): > 60%
- doses at which AEs were reported ([3]; not at 5 and 12 mg dose): ≥ 20 mg
- EC50 (human MT1 receptor): 0.019 µM
- Emax (human MT1 receptor): 90%
- activity in the battery of ligand binding assays [4]: only assays in which either compound was active were the melatonin Type 1 and Type 2 receptors
- brain exposure [5]: good brain exposure
- sedation scores in VAS alertness scale compared to placebo ([6]; 1 h post-dose, dose ≥20 mg, ref AZ data on file): numerically higher sedation scores
- correct answers on DSST ([6]; 2 h after administration, dose ≥20 mg, ref AZ data on file): lower mean correct answers
- relationship between dose and alertness or cognitive performance ([6]; VAS alertness-sedation, Modified Wilson Sedation Scale, DSST, ref NCT00681317 and NCT00681915): no significant relationship
- receptor occupancy up to which no cognitive or hypnotic side effects were observed [7]: up to 60%
